Tests used:
[1] = target: Histamine H2 receptor (Homo sapiens) (UniProt P25021); experiment: H2 (h) Eurofins-Cerep binding assay; set-up: ligand concentration 0.075 nM; conditions: filed as antagonist, Compound concentration 10.0 uM
[2] = target: T1, Muscarinic acetylcholine receptor M4 (Homo sapiens) (UniProt P08173); experiment: M4 (h) Eurofins-Cerep binding assay; set-up: ligand concentration 0.2 nM; conditions: filed as antagonist, Compound concentration 10.0 uM
T1 sequence (whole entry): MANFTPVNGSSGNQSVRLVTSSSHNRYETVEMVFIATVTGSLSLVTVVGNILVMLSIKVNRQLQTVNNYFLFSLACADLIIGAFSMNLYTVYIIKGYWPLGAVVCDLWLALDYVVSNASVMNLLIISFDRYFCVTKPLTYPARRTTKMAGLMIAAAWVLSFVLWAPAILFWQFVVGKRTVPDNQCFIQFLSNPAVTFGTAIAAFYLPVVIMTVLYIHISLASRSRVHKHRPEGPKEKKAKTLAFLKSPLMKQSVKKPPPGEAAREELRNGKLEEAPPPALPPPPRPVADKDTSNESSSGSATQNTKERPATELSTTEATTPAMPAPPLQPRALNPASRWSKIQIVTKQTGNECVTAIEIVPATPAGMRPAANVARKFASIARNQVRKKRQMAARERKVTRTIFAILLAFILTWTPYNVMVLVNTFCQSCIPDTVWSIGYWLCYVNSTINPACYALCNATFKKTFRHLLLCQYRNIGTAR

[3] = target: T2, Muscarinic acetylcholine receptor M5 (Homo sapiens) (UniProt P08912); experiment: M5 (h) Eurofins-Cerep binding assay; set-up: ligand concentration 0.3 nM; conditions: filed as antagonist, Compound concentration 10.0 uM
T2 sequence (whole entry): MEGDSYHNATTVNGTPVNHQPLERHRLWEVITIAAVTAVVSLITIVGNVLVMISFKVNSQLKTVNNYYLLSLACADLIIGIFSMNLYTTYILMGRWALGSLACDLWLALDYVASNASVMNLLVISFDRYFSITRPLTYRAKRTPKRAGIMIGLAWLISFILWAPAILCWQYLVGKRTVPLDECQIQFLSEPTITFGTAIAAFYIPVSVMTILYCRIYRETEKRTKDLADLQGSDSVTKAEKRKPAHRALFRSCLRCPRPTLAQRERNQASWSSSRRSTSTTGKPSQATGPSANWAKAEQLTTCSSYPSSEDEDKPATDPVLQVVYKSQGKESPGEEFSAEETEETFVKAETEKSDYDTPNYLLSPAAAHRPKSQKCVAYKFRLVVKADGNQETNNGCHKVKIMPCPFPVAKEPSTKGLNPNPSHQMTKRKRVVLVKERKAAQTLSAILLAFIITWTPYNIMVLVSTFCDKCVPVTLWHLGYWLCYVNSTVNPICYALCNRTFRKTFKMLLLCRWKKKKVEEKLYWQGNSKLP

[4] = target: Sulfonylurea receptors; K-ATP channels (Rattus norvegicus) (UniProt Q63563+P70673+Q63664+Q09429); experiment: KATP channel Eurofins-Cerep binding assay; type: protein-complex assay; set-up: ligand concentration 0.1 nM; conditions: filed as antagonist, Compound concentration 10.0 uM
[5] = test system: Tyrosine-protein kinase ABL1 (Homo sapiens), P00519 [E255K]; conditions: Compound concentration 1000.0 nM
[6] = test system: Tyrosine-protein kinase ABL1 (Homo sapiens), P00519 [T315I]; conditions: Compound concentration 1000.0 nM
[7] = target: Tyrosine-protein kinase ABL2 (Homo sapiens) (UniProt P42684); conditions: Compound concentration 1000.0 nM
[8] = target: Tyrosine-protein kinase receptor UFO (Homo sapiens) (UniProt P30530); conditions: Compound concentration 1000.0 nM
[9] = target: Tyrosine-protein kinase BTK (Homo sapiens) (UniProt Q06187); conditions: Compound concentration 1000.0 nM
[10] = target: Mitotic checkpoint serine/threonine-protein kinase BUB1 (Homo sapiens) (UniProt O43683); conditions: Compound concentration 1000.0 nM
[11] = target: Cyclin-dependent kinase 5 (Homo sapiens) (UniProt Q00535); conditions: Compound concentration 1000.0 nM
[12] = target: Serine/threonine-protein kinase 17A (Homo sapiens) (UniProt Q9UEE5); conditions: Compound concentration 1000.0 nM
[13] = target: Fibroblast growth factor receptor 2 (Homo sapiens) (UniProt P21802); conditions: Compound concentration 1000.0 nM
[14] = test system: Receptor-type tyrosine-protein kinase FLT3 (Homo sapiens), P36888 [D835H]; conditions: Compound concentration 1000.0 nM
[15] = target: Glycogen synthase kinase-3 beta (Homo sapiens) (UniProt P49841); conditions: Compound concentration 1000.0 nM
[16] = target: Inhibitor of nuclear factor kappa-B kinase subunit alpha (Homo sapiens) (UniProt O15111); conditions: Compound concentration 1000.0 nM
[17] = test system: Hepatocyte growth factor receptor (Homo sapiens), P08581 [Y1235D]; conditions: Compound concentration 1000.0 nM
[18] = target: MAP kinase-interacting serine/threonine-protein kinase 2 (Homo sapiens) (UniProt Q9HBH9); conditions: Compound concentration 1000.0 nM
[19] = target: Serine/threonine-protein kinase 4 (Homo sapiens) (UniProt Q13043); conditions: Compound concentration 1000.0 nM
[20] = target: Serine/threonine-protein kinase mTOR (Homo sapiens) (UniProt P42345); conditions: Compound concentration 1000.0 nM
[21] = target: Myosin light chain kinase 2, skeletal/cardiac muscle (Homo sapiens) (UniProt Q9H1R3); conditions: Compound concentration 1000.0 nM
[22] = target: Serine/threonine-protein kinase NIM1 (Homo sapiens) (UniProt Q8IY84); conditions: Compound concentration 1000.0 nM
[23] = target: Mitogen-activated protein kinase 12 (Homo sapiens) (UniProt P53778); conditions: Compound concentration 1000.0 nM
[24] = target: Serine/threonine-protein kinase PAK 3 (Homo sapiens) (UniProt O75914); conditions: Compound concentration 1000.0 nM
[25] = target: Serine/threonine-protein kinase D3 (Homo sapiens) (UniProt O94806); conditions: Compound concentration 1000.0 nM
[26] = target: Ribosomal protein S6 kinase alpha-4 (Homo sapiens) (UniProt O75676); conditions: Compound concentration 1000.0 nM
[27] = target: Ribosomal protein S6 kinase alpha-2 (Homo sapiens) (UniProt Q15349); conditions: Compound concentration 1000.0 nM
[28] = target: SRSF protein kinase 3 (Homo sapiens) (UniProt Q9UPE1); conditions: Compound concentration 1000.0 nM
[29] = target: Mitogen-activated protein kinase kinase kinase 7 (Homo sapiens) (UniProt O43318); conditions: Compound concentration 1000.0 nM
[30] = target: Mitogen-activated protein kinase kinase kinase 19 (Homo sapiens) (UniProt Q56UN5); conditions: Compound concentration 1000.0 nM
[31] = target: Histamine H1 receptor (Homo sapiens) (UniProt P35367); conditions: Compound concentration 10.0 uM

Sulfonylurea receptors; K-ATP channels (Rattus norvegicus), sequence (P70673 whole entry, looked up): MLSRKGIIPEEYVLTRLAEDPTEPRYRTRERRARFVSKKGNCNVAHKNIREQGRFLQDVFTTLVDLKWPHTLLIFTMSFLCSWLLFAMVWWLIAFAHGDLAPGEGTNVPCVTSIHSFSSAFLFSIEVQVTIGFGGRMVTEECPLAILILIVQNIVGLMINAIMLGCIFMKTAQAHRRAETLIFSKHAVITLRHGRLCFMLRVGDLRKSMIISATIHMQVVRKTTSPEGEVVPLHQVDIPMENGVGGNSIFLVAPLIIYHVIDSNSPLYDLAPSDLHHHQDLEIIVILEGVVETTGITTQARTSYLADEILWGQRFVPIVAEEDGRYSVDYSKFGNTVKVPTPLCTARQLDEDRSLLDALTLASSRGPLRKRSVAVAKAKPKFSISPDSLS
Sulfonylurea receptors; K-ATP channels (Rattus norvegicus), sequence (Q09429 whole entry, looked up): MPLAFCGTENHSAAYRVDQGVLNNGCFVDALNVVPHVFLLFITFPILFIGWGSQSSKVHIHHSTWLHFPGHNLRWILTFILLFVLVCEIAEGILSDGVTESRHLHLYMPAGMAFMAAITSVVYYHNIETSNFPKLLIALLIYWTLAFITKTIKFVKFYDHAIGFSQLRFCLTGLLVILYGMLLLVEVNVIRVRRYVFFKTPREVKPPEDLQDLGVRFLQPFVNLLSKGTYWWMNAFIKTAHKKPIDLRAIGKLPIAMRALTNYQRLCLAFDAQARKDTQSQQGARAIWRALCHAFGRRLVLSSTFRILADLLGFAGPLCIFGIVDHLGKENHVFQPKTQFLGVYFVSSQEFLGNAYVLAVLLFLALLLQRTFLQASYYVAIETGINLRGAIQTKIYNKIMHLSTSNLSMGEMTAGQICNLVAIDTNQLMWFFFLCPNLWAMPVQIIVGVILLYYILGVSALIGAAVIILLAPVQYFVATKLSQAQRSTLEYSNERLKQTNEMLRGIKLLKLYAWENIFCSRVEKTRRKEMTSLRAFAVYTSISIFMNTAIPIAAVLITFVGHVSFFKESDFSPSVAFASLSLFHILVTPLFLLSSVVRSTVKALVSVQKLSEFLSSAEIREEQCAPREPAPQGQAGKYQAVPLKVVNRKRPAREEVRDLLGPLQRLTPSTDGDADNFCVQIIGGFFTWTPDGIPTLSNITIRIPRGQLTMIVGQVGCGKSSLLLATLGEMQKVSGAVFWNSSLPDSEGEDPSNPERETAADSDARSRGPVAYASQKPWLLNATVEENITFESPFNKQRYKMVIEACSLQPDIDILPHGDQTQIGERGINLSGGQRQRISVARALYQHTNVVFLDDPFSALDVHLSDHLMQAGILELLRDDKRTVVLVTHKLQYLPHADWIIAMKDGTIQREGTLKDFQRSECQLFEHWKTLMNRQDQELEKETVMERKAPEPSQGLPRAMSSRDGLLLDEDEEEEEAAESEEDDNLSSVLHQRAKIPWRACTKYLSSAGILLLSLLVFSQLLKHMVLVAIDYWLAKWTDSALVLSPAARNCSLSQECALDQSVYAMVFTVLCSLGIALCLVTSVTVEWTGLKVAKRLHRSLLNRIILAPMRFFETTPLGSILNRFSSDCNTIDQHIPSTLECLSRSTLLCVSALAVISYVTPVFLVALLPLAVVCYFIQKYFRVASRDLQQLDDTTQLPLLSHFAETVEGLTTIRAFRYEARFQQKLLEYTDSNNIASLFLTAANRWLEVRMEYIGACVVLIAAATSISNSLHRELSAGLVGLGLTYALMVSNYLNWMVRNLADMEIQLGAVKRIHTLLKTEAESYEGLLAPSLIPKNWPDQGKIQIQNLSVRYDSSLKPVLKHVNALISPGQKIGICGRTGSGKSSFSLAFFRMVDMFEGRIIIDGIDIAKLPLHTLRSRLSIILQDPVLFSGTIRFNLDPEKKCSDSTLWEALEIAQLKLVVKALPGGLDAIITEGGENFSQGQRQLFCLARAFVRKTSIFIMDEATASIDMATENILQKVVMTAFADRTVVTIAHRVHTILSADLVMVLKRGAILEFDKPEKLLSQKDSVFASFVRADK
Sulfonylurea receptors; K-ATP channels (Rattus norvegicus), sequence (Q63563 whole entry, looked up): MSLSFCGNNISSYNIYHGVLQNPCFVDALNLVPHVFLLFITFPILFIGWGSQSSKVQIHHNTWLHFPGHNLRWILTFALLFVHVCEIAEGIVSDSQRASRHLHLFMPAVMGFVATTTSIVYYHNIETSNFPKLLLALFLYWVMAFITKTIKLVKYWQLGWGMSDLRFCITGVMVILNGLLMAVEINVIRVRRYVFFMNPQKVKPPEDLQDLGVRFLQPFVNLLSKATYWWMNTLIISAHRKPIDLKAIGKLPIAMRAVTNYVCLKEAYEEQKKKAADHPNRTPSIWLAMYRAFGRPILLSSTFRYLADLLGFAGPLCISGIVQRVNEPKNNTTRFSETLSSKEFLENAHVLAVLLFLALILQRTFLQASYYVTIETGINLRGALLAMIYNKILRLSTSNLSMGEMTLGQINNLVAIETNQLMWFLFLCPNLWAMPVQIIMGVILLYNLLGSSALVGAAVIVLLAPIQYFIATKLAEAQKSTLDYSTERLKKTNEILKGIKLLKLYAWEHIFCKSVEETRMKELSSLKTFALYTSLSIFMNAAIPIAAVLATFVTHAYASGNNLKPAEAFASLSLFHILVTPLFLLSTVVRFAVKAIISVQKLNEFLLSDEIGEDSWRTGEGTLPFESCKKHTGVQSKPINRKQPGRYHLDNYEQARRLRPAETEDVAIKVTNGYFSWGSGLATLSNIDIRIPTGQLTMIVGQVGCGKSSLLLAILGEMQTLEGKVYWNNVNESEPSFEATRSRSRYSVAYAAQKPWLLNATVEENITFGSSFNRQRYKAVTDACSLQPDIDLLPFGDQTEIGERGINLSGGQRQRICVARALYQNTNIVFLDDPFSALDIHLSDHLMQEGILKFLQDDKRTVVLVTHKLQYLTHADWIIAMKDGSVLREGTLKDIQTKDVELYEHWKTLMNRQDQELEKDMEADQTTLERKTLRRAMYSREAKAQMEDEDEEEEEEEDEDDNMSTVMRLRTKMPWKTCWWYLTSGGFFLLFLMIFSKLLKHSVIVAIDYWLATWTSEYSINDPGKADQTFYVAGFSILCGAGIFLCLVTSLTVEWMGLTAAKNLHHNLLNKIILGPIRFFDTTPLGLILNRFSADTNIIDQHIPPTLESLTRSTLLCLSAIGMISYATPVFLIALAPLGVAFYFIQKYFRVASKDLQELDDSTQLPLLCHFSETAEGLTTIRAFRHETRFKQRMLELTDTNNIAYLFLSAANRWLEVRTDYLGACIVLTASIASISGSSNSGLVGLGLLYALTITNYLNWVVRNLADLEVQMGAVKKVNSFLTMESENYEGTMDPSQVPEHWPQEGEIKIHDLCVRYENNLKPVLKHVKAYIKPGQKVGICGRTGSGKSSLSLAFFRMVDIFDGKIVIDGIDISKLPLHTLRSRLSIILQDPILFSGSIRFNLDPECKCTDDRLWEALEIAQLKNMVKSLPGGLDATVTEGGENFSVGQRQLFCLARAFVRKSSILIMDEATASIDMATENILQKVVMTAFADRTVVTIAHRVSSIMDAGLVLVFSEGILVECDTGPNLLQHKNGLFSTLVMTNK
Sulfonylurea receptors; K-ATP channels (Rattus norvegicus), sequence (Q63664 whole entry, looked up): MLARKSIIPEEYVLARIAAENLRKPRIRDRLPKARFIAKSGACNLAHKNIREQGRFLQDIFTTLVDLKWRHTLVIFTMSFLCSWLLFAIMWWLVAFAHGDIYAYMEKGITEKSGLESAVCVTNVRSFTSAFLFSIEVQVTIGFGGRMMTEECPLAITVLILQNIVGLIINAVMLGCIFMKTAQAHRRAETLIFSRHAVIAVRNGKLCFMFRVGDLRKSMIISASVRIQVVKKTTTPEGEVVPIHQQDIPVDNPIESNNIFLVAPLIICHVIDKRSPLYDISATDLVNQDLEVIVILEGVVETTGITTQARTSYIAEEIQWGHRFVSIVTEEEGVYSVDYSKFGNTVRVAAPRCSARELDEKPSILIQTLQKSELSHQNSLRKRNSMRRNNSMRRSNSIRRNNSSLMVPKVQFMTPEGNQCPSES
Histamine H2 receptor (Homo sapiens), sequence (P25021 whole entry): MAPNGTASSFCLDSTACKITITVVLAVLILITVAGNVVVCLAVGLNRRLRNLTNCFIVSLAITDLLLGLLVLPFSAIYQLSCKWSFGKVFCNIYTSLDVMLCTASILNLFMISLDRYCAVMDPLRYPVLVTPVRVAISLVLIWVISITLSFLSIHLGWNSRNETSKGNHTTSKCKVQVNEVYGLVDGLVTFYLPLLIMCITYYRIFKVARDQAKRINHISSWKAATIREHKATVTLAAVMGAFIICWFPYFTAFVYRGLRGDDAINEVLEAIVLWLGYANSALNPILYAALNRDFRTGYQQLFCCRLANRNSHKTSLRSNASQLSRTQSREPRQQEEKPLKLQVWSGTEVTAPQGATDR
Serine/threonine-protein kinase PAK 3 (Homo sapiens), sequence (O75914 whole entry, looked up): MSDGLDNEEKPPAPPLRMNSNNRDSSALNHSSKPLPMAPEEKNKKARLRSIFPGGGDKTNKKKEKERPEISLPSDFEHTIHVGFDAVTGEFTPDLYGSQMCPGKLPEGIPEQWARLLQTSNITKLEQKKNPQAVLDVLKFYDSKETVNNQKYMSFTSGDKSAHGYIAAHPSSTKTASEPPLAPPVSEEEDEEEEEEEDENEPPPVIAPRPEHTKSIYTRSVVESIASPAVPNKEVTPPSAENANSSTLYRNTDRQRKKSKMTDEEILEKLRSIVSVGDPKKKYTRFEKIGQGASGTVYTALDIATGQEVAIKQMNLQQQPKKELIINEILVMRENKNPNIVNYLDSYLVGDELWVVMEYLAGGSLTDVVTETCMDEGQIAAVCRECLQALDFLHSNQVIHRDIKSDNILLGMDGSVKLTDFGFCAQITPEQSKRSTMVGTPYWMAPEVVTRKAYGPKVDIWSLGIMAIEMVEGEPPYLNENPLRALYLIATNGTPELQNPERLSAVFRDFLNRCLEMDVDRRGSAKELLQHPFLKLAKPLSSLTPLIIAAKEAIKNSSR

SMILES: CN(C)CC#Cc1ccc(OCCCc2sc(N3CCc4cccc(C(=O)Nc5nc6ccccc6s5)c4C3)nc2C(=O)O)c(F)c1 [A-1155463]
- % Inhibition of Control Specific Binding (Mean n=2) [1]: -11.6%
- % Inhibition of Control Specific Binding (Mean n=2) [2]: 13.8%
- % Inhibition of Control Specific Binding (Mean n=2) [3]: 10.3%
- % Inhibition of Control Specific Binding (Mean n=2) [4]: 27.4%
- residual activity [5]: 85%
- residual activity [6]: 51%
- residual activity [7]: 100%
- residual activity [8]: 92%
- residual activity [9]: 96%
- residual activity [10]: 81%
- residual activity [11]: 100%
- residual activity [12]: 85%
- residual activity [13]: 98%
- residual activity [14]: 93%
- residual activity [15]: 93%
- residual activity [16]: 81%
- residual activity [17]: 95%
- residual activity [18]: 75%
- residual activity [19]: 100%
- residual activity [20]: 100%
- residual activity [21]: 100%
- residual activity [22]: 100%
- residual activity [23]: 89%
- residual activity [24]: 97%
- residual activity [25]: 93%
- residual activity [26]: 96%
- residual activity [27]: 94%
- residual activity [28]: 100%
- residual activity [29]: 100%
- residual activity [30]: 95%
- inhibition [31]: 39.8%

SMILES: O=C(Nc1nc2ccccc2s1)c1cccc2c1CN(c1nc(C(=O)O)c(CCOc3ccc(-n4ncc5cncnc54)cc3)s1)CC2 [A-1107969]
- % Inhibition of Control Specific Binding (Mean n=2) [1]: -11%
- % Inhibition of Control Specific Binding (Mean n=2) [2]: 8.6%
- % Inhibition of Control Specific Binding (Mean n=2) [3]: 8.8%
- % Inhibition of Control Specific Binding (Mean n=2) [4]: 15.8%
